In one data set the target is Cytochrome P450 2D6 (Homo sapiens, UniProt P10635).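 Further: CYP2D6 member of a cytochrome P450 panel assay.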
The target of a further data set is Cytochrome P450 2C9 (Homo sapiens, UniProt P11712).
The target of data set [1] is G-protein coupled receptor 55 (Homo sapiens, UniProt Q9Y2T6). The data set can be described thus: GPR55 antagonists blocking LPI-driven arrestin recruitment, primary screen, imaging, U2OS, beta-arrestin-GFP, LPI agonist (AID 2013).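 Further: antagonist potency measured as reduced agonist-driven arrestin aggregation.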 The data set is classed as functional. For orientation: Activated receptors often draw arrestin, which recruitment assays turn into a signal.
Chain of G-protein coupled receptor 55 (Q9Y2T6 whole entry): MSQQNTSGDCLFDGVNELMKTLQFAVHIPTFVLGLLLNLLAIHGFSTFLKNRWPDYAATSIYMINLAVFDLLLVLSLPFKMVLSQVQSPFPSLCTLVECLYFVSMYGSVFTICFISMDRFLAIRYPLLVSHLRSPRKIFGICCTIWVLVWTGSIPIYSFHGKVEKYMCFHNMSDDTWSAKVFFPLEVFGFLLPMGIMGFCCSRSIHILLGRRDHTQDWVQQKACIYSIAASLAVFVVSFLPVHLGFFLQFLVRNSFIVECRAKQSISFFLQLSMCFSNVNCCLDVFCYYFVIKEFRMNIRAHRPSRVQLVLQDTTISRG

The target of data set [2] is T1, Voltage-gated N-type calcium channel alpha-1B subunit/Amyloid beta A4 precursor protein-binding family A member 1 (Homo sapiens, UniProt Q00975+Q02410). The data set is classed as protein assay.
T1 sequence (Q00975 whole entry): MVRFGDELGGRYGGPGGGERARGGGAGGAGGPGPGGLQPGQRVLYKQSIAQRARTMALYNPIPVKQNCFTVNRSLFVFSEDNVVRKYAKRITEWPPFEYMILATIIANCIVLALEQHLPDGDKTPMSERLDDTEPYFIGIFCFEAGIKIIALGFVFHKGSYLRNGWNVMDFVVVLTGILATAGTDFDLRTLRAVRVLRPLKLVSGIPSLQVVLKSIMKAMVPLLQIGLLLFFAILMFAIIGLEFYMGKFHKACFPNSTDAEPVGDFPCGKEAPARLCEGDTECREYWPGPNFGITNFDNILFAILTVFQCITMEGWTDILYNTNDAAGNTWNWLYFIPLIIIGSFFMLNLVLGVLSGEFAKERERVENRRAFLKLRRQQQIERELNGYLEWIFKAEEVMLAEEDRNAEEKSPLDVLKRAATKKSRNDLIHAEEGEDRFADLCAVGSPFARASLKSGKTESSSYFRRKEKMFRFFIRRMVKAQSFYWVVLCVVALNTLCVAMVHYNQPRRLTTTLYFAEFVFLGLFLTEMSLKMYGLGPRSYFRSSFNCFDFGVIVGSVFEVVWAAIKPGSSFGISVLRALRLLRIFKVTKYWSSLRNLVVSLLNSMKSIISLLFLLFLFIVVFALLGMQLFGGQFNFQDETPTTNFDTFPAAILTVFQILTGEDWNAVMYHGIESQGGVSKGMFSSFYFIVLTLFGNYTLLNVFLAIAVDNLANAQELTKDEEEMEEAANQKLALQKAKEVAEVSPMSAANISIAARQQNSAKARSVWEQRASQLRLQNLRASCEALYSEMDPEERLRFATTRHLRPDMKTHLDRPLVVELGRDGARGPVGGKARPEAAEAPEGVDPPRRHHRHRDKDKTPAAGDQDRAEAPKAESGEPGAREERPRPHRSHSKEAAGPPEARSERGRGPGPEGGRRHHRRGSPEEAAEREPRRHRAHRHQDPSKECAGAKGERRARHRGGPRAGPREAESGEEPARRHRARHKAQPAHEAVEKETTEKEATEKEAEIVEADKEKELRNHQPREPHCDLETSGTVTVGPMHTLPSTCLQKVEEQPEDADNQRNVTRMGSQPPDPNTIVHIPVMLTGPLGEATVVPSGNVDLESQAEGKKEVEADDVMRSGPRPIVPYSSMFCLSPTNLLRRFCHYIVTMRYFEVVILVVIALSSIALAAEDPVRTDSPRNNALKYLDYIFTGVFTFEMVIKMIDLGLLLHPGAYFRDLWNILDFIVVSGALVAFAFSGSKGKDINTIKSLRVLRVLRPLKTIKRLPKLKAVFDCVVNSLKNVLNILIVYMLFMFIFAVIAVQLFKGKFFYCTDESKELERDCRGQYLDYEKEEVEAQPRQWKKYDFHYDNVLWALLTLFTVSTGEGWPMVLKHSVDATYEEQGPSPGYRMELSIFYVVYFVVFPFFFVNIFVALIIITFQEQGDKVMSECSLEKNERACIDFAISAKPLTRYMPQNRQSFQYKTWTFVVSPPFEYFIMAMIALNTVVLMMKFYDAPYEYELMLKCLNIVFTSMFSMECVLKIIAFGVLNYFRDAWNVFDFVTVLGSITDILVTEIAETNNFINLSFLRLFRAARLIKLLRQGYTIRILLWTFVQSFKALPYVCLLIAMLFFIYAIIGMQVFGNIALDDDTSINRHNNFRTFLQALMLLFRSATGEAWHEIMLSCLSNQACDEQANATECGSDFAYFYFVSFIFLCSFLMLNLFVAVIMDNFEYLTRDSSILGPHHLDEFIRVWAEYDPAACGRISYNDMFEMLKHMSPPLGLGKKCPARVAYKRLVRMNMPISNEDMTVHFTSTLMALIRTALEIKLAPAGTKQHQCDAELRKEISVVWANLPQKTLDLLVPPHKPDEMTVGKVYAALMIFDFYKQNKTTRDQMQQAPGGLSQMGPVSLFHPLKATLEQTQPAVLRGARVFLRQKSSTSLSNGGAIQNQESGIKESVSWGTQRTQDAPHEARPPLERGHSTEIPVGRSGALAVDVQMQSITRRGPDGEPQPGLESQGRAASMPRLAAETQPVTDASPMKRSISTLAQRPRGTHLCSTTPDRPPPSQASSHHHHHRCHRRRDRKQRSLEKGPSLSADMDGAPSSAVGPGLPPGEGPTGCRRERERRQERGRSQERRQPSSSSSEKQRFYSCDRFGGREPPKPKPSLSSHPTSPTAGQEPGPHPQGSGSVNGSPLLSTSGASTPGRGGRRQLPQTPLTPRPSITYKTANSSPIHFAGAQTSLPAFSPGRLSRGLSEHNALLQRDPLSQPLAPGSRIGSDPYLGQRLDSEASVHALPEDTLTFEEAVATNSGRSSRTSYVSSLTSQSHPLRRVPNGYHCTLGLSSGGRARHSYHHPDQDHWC
T1 sequence (Q02410 whole entry): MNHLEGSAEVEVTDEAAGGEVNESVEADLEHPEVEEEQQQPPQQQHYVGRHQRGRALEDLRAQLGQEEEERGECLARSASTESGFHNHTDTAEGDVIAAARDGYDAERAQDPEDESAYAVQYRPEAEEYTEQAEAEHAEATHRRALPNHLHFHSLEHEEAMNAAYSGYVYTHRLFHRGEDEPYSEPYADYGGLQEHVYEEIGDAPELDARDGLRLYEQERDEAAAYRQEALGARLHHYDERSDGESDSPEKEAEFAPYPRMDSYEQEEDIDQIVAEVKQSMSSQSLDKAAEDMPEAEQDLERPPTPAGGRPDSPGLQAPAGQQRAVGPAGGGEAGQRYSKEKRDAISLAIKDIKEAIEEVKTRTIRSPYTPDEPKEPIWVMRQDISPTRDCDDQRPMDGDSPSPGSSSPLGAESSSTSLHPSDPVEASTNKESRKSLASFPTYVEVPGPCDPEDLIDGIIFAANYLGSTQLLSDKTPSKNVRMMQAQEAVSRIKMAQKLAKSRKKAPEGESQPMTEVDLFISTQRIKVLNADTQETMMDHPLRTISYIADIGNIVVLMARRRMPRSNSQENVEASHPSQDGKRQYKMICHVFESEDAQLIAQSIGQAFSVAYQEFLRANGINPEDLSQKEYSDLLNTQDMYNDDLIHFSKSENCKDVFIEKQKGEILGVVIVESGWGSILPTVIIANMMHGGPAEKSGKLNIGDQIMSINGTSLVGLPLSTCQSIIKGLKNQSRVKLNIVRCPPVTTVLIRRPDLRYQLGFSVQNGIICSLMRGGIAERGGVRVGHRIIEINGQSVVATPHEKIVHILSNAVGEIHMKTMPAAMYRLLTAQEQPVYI
In data set [3] the target is T1, Voltage-gated N-type calcium channel alpha-1B subunit/Amyloid beta A4 precursor protein-binding family A member 1. In kind it is protein assay. This is another data set of the same source.
In data set [4] the test system is Streptococcus sp. 'group A'. The data set can be described thus: growth inhibition of control SK(-) GAS strain, dose response, counter-screen for streptokinase expression inhibitor project, luminescence, kanamycin, BacTiterGlo, confirmation (AID 1900). In kind it is functional, organism-based. (The purpose of a counterscreen is to sort out artefacts and off-target activity.)

Another data set addresses T2, Streptokinase A (Streptococcus pyogenes serotype M1, UniProt P10520).
T2 sequence (P10520 whole entry): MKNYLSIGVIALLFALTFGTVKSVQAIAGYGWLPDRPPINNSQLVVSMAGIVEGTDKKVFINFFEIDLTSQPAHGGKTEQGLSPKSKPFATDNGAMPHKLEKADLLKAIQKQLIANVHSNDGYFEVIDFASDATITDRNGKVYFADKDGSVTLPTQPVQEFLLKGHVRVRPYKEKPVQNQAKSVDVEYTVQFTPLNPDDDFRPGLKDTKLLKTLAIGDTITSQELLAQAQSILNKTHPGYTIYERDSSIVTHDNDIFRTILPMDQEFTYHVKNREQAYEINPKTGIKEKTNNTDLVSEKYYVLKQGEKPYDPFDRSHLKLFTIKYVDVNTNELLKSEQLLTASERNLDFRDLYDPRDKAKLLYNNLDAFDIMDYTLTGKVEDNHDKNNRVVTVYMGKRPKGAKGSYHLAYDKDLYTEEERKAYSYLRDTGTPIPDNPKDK
The data set can be described thus: S. pyogenes streptokinase expression inhibitors, potency, dose response, plasminogen activation absorbance, OD405 (AID 1914).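 Further: secreted streptokinase activity via plasminogen activation per viability signal from cell pellet.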 In kind it is functional, Streptococcus pyogenes M1 GAS.

The test system of a further data set is Streptococcus. The data set is described as follows: Group A Streptococcus viability loss, dose response, counter-screen for streptokinase expression inhibitor project, luminescence, BacTiterGlo (AID 1915).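 Further: potency for reduction of bacterial viability or growth.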 The data set is classed as functional, organism-based.
For a further data set, the target named is Troponin, cardiac muscle (Homo sapiens, UniProt P19429+P45379+P63316). The data set is described as follows: Fluorescence-based biochemical high throughput dose response assay for activators of the calcium sensitivity of cardiac Regulated Thin Filaments (RTF). [Related pubchem assays (depositor defined):AID493008, AID493018, AID504382, AID504383]. In kind it is protein-complex assay.

The next data set addresses T3, Bcl-2-related protein A1 (Mus musculus, UniProt Q07440).
T3 sequence (Q07440 whole entry): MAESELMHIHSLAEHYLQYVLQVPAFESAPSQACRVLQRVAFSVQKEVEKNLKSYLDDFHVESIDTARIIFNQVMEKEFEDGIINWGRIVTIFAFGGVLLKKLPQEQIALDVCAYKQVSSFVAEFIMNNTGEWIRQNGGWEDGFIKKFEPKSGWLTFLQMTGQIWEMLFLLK
The data set is classed as functional.

Data set [5] concerns the target T4, Ubiquitin-conjugating enzyme E2 N (Homo sapiens, UniProt P61088).
T4 sequence (P61088 whole entry): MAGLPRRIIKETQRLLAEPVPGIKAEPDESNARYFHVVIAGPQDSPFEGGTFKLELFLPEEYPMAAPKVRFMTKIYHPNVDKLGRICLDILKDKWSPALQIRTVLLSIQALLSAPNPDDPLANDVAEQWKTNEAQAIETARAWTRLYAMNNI
The data set is classed as functional.

Data set [6] has as its target T4, Ubiquitin-conjugating enzyme E2 N. The data set is classed as functional. The source holds these as a separate data set.
Data set [7] has as its target T5, SUMO-activating enzyme (Homo sapiens, UniProt Q9UBT2). The data set can be described thus: SUMOylation inhibitor hit validation, confirmation, SUMOylation inhibitor project, biochemical, AlphaScreen (AID 2018). In kind it is functional. (In general: Bead proximity is the source of the signal in Alpha formats.)
A short description of data set [8]: HIV-1 Env-mediated cell fusion inhibitors, dose response, CCR5-tropic Env (AID 2279). The data set is classed as functional.
Data set [9] concerns the target T5, SUMO-activating enzyme. The data set is described as follows: inhibitors of in vitro SUMOylation cascade, primary screen, biochemical, HTRF, uHTS (AID 2006). In kind it is protein-complex assay.
Data set [10] concerns the target Intestinal-type alkaline phosphatase (Mus musculus, UniProt P24822). The data set is described as follows: PubChem AID 488785. In kind it is functional.
The target in data set [11] is T6, Alkaline phosphatase, tissue-nonspecific isozyme (Homo sapiens, UniProt P05186).
T6 sequence (P05186 whole entry): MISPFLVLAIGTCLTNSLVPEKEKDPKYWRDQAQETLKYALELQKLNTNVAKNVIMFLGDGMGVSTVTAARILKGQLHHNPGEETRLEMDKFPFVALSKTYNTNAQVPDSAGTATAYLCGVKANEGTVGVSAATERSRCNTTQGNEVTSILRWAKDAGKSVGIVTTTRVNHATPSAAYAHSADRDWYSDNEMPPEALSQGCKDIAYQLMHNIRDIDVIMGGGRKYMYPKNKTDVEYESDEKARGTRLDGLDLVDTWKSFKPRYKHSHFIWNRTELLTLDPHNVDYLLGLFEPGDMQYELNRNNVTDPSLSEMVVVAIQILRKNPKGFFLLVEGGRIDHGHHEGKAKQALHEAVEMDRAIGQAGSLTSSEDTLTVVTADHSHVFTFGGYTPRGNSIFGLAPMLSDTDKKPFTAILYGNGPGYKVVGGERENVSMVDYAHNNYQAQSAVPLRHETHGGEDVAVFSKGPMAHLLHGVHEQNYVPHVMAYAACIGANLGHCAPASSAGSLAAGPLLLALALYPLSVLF
The data set is described as follows: TNAP enzyme inhibition by screening hits, dose response, selectivity assay for mouse IAP inhibitor project, biochemical, human TNAP, uHTS hits (AID 488906). The data set is classed as functional.

In data set [12] the target is Intestinal-type alkaline phosphatase (Homo sapiens, UniProt P09923). The data set is described as follows: inhibition of human intestinal alkaline phosphatase – biochemical, dose response (AID 488876). The data set is classed as functional.
Chain of Intestinal-type alkaline phosphatase (Homo sapiens, UniProt P09923) (P09923 whole entry): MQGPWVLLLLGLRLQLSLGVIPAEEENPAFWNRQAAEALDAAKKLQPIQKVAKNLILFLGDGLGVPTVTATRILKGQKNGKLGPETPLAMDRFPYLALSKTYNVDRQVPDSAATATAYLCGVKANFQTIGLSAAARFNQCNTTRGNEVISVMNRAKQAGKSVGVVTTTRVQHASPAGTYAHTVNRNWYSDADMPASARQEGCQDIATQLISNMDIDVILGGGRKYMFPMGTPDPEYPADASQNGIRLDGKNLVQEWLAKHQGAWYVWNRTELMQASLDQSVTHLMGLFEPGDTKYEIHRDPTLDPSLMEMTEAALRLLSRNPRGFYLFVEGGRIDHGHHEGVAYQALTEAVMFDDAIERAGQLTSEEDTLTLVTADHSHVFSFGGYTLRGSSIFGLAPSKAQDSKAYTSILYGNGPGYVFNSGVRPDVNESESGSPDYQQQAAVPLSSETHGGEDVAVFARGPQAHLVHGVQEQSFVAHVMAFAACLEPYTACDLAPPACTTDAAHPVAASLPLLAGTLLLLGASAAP
The target in the next data set is Nonstructural protein 1 (Influenza A virus, UniProt Q194T2). In kind it is functional, Influenza A virus (A/California/07/2009(H1N1)).
In data set [13] the target is T7, DNA repair protein RAD52 homolog (Homo sapiens, UniProt P43351).
T7 sequence (P43351 whole entry): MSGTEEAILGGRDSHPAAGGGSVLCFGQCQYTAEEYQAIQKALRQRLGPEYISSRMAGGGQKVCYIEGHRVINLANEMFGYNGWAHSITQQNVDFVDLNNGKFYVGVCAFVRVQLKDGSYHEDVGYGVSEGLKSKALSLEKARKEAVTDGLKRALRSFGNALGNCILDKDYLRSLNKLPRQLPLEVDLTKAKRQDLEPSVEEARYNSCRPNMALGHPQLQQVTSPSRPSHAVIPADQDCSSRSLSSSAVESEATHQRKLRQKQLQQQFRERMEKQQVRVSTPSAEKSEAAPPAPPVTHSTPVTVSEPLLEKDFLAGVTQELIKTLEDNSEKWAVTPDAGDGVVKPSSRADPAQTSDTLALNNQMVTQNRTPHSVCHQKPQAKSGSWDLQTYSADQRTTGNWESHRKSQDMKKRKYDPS
In kind it is functional, biochemical.

In data set [14] the target is Delta-type opioid receptor (Homo sapiens, UniProt P41143). The data set can be described thus: Counterscreen for agonists of heterodimerization of the mu 1 (OPRM1) and delta 1 (OPRD1) opioid receptors: Luminescence-based cell-based high throughput dose response assay to identify agonists of OPRD1 homodimerization. [Related pubchem assays (depositor defined):AID504326, AID504355, AID504692, AID504904, AID504905]. In kind it is functional.

The next data set deals with Mu-type opioid receptor (Homo sapiens, UniProt P35372). The data set is described as follows: Counterscreen for agonists of heterodimerization of the mu 1 (OPRM1) and delta 1 (OPRD1) opioid receptors: Luminescence-based cell-based high throughput dose response assay to identify agonists of OPRM1 homodimerization. The data set is classed as functional.
Data set [15] deals with 5-hydroxytryptamine receptor 5A (Homo sapiens, UniProt P47898). The data set is described as follows: Counterscreen for agonists of OPRM1-OPRD1 heterodimerization: luminescence-based cell-based high throughput dose response assay to identify agonists of 5-hydroxytryptamine (serotonin) 5A receptor (HTR5A). [Related pubchem assays (depositor defined):AID504326, AID504355, AID504692, AID504904, AID504905]. In kind it is functional.

Activity calls are given as the source filed them. Some results are limits rather than exact numbers.

Chain of Cytochrome P450 2C9 (P11712 whole entry): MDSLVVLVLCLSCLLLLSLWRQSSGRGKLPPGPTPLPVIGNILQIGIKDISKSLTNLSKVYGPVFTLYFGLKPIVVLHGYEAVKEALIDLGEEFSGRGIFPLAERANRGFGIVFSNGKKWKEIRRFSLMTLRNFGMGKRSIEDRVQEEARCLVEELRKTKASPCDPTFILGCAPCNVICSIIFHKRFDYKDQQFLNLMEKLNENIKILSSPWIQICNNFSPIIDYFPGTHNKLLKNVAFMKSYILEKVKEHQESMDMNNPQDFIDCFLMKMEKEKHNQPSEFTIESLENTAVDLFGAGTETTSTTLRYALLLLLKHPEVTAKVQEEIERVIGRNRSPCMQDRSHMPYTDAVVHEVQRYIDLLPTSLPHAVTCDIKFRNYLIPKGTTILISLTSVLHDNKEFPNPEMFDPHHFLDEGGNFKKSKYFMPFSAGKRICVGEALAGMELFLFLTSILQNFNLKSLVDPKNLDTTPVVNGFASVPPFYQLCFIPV
Chain of Intestinal-type alkaline phosphatase (Mus musculus, UniProt P24822) (P24822 whole entry): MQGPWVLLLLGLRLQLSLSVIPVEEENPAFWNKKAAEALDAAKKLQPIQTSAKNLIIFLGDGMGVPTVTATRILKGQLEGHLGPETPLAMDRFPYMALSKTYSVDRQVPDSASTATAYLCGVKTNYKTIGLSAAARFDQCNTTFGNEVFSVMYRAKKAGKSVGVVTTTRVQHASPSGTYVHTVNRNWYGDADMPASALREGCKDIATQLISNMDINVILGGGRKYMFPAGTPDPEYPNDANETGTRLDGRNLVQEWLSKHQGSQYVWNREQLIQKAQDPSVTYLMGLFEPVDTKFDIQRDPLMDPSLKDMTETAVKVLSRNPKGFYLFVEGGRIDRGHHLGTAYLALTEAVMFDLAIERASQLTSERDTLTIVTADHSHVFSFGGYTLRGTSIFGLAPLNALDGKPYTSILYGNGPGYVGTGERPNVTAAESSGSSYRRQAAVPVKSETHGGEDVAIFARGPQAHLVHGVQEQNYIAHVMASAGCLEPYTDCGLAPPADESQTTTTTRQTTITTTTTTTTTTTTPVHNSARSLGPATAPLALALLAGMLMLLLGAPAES

For `COc1ccc(CNc2ccnc(-c3cccc(NS(C)(=O)=O)c3)n2)c(OC)c1`, the AC50 is 12.6 µM (inconclusive) at Cytochrome P450 2D6 and “inconclusive” on Cytochrome P450 2C9.

Regarding `COc1cc(Br)c(-c2sc(Nc3ccccc3)n[n+]2-c2ccc(F)cc2)cc1OC`, the IC50 in data set [1] is 11.9 µM (inactive).

For the compound `Cc1ccc(/C=C2\SC(=S)N(CCC(=O)NNC(=O)c3cccc(O)c3)C2=O)cc1`, the concentration for half-maximal inhibition (IC50) was 16 µM (active) in data set [2] and > 50 µM (inactive) in data set [3].

Regarding `Cc1cc(/C=C2\SC(=S)N(C)C2=O)c(C)n1-c1ccccc1O`, the EC50 in data set [4] is 8.37 µM (active); on Streptokinase A, 17.8 µM (active); with Streptococcus, 16.1 µM (active); at Troponin, cardiac muscle, 4.96 µM (active).

Turning to `O=C(CCNC(=O)c1ccccc1Cl)Nc1nc2ccccc2s1`, the IC50 at Bcl-2-related protein A1 is > 20 µM (inactive); in data set [5] it was 6.15 µM (active); in [6], 8.02 µM (active).

On to `CCOC(=O)C1=C(C)N=c2s/c(=C\c3ccc(OCC(=O)O)cc3)c(=O)n2C1c1ccc(OC(C)C)cc1` (stereo not drawn), for which the results for the IC50 (at SUMO-activating enzyme [7]; in data set [8]; on SUMO-activating enzyme [9]) were 10.1 µM (active), 35.2 µM (active) and 26 µM (active), respectively.

On to `CCn1cc(C(=O)NCCC(=O)NCCO)c(=O)c2cc3c(cc21)OCO3`, for which the EC50 on Troponin, cardiac muscle is > 71.4 µM (inactive).

In the case of `O=C(CSc1nnc2sc3ccccc3n12)NCc1ccco1`, the AC50 entry on Cytochrome P450 2C9 is listed as “inconclusive”.

Consider `N#Cc1c(SCC(=O)Nc2nc3ccccc3s2)sc2c(O)cc(O)nc12`, for which the concentration for half-maximal inhibition (IC50) in data set [10] is 18.8 µM (active); in [11], > 100 µM (inactive); in [12], > 100 µM (inactive).

With `CN(C)CCCNC(=O)c1ccc(-c2cc(O)c3ncccc3c2)cc1`, the IC50 was 7.49 µM (active) on Bcl-2-related protein A1, 3.89 µM (active) in data set [5], 3.15 µM (active) in [6] and 4.25 µM (active) on Nonstructural protein 1. In addition, the AC50 in [13] was 0.849 µM (active).

Take `Cc1cc(C)c(NC(=O)NC(=O)c2ccc(F)cc2)c(C)n1`: the AC50 entry at Cytochrome P450 2C9 is “inconclusive”.

As to `CCN(CC)c1ccc(/C=c2\sc3nnc(-c4ccccc4Cl)n3c2=O)cc1`, the concentration for a half-maximal effect (EC50) on Troponin, cardiac muscle was 0.191 µM (active).

Regarding `O=C(/C=C/c1ccco1)NC(=S)Nc1ccccc1N1CCOCC1`, the half-maximal inhibitory concentration (IC50) in data set [1] is 4.57 µM (active).

On to `Cc1[nH]c(=S)c(C#N)c(-c2ccccc2)c1C(=O)Nc1ccccc1`, for which the IC50 at Bcl-2-related protein A1 was > 20 µM (inactive); in data set [5] it was 13.9 µM (active); in [6], > 20 µM (inactive).

For `O=C1NN(c2cccc(Br)c2)C(=O)/C1=C/c1ccc(-c2cc([N+](=O)[O-])ccc2O)o1`, the concentration for half-maximal inhibition (IC50) is 4.7 µM (active) in data set [10], > 100 µM (inactive) in data set [11] and > 100 µM (inactive) in data set [12].

As to `CC12CNCC(C)(CN(C(c3ccccc3)c3ccccc3)C1)C2`, the IC50 in data set [1] was 5.62 µM (active).

As to `CCN1CCN(c2ccc([N+](=O)[O-])c(Sc3nc4ccccc4[nH]3)c2)CC1`, the half-maximal effective concentration (EC50) was 4.1 µM (active) in data set [14], > 92.5 µM (inactive) at Mu-type opioid receptor and > 92.5 µM (inactive) in [15].

Broadly, the AC50 is the midpoint of the concentration-response curve, whichever way the signal moves. One may read the IC50 as the concentration that gives 50% inhibition. Usually EC50 stands for the concentration needed to bring the measured effect to its halfway point.

Source of the values: ChEMBL document CHEMBL1201862, “PubChem BioAssay data set” (2004).
